# Results: patent US4060530A, “Clavulanic acid amides” (Beecham Group Limited, priority 1975, dated 1977)
# Counter-ions that a name gives are not always drawn.
# Key:
# Streptococcus faecalis = assay: MIC, microtitre method (Example 30); conditions: Enterococcus faecalis, read-out: Minimum Inhibitory Concentration
# Protocol: (§1) The cultures were incubated overnight and the points of bacterial growth recorded next morning by observing the turbidity of the culture.
# [1] = system: Escherichia coli NCTC 10418; assay: MIC, microtitre method (Example 30); conditions: NCTC10418, read-out: Minimum Inhibitory Concentration
# Protocol: as §1
# [2] = system: Enterobacter aerogenes T 624; assay: MIC, microtitre method (Example 30); conditions: Klebsiella aerogenes, T624, read-out: Minimum Inhibitory Concentration
# Protocol: as §1
# Bacillus subtilis A = assay: MIC, method of Example 30 with 1/100 dilution of overnight broth (Example 46); conditions: Bacillus subtilis
# Protocol: as §1
# [3] = system: Staphylococcus aureus (Russell); assay: MIC, microtitre method (Example 30); conditions: read-out: Minimum Inhibitory Concentration
# Protocol: as §1
# [4] = system: Staphylococcus aureus (Russell); assay: MIC / synergism, microtitre method (Example 42); assay type: cell-based; conditions: Staphylococcus aureus; agent alone (Tables 5, 6); inoculum final dilution 0.5 ×10^-2, 37° C overnight; read-out: Minimum Inhibitory Concentration
# [5] = Blood and tissue levels of clavulanic acid in female mice; assay type: in vivo
# Pseudomonas aeruginosa A = assay: MIC, microtitre method (Example 30); conditions: read-out: Minimum Inhibitory Concentration
# Protocol: as §1
# Proteus mirabilis 899 = assay: microbe, parasite or virus in culture; assay type: cell-based; conditions: Proteus mirabilis, 899, read-out: Minimum Inhibitory Concentration
# Escherchia coli 10418 = assay: MIC, method of Example 30 with 1/100 dilution of overnight broth (Example 46)
# Protocol: as §1
# Klebsiella sp 62 = assay: MIC / synergism, microtitre method (Example 42); assay type: cell-based; conditions: agent alone, inoculum final dilution 0.5 ×10^-2, 37° C overnight, read-out: Minimum Inhibitory Concentration
# Enterobacter cloacae [6] = assay: MIC, microtitre method (Example 30); conditions: read-out: Minimum Inhibitory Concentration
# Protocol: as §1
# Providentia stuartii = assay: MIC, microtitre method (Example 30); conditions: read-out: Minimum Inhibitory Concentration
# Protocol: as §1
# Acinetobacter anitratus = assay: MIC, microtitre method (Example 30); conditions: Acinetobacter calcoaceticus, read-out: Minimum Inhibitory Concentration
# Protocol: as §1
# [7] = system: Staphylococcus aureus (Oxford H); assay: MIC, microtitre method (Example 30); conditions: read-out: Minimum Inhibitory Concentration
# Protocol: as §1
# [8] = system: Escherichia coli NCTC 10481; assay: MIC / synergism, microtitre method (Example 42); assay type: cell-based; conditions: NCTC10481, agent alone, inoculum final dilution 0.5 ×10^-2, 37° C overnight, read-out: Minimum Inhibitory Concentration
# Staphylococcus aureus = assay: MIC / synergism, microtitre method (Example 42); assay type: cell-based; conditions: Staphylococcus aureus; agent alone (Tables 5, 6); inoculum final dilution 0.5 ×10^-2, 37° C overnight; read-out: Minimum Inhibitory Concentration
# [9] = system: Streptococcus pyogenes CN 10; assay: MIC, microtitre method (Example 30); conditions: CN10, read-out: Minimum Inhibitory Concentration
# Protocol: as §1
# Staph. aureus Oxford = assay: MIC, method of Example 30 with 1/100 dilution of overnight broth (Example 46); conditions: Staphylococcus aureus
# Protocol: as §1
# Shigella sonnei = assay: MIC, microtitre method (Example 30); conditions: read-out: Minimum Inhibitory Concentration
# Protocol: as §1
# Serratia marcescens [10] = assay: MIC / synergism, microtitre method (Example 42); assay type: cell-based; conditions: agent alone, inoculum final dilution 0.5 ×10^-2, 37° C overnight, read-out: Minimum Inhibitory Concentration
# Klebsiella aerogenes = assay: MIC, microtitre method (Example 30); conditions: read-out: Minimum Inhibitory Concentration
# Protocol: as §1
# Staph. aureus Russell = assay: MIC, method of Example 30 with 1/100 dilution of overnight broth (Example 46); conditions: Staphylococcus aureus
# Protocol: as §1
# Serratia marcescens [11] = assay: MIC, microtitre method (Example 30); conditions: read-out: Minimum Inhibitory Concentration
# Protocol: as §1
# Bacillus subtilis = assay: MIC, microtitre method (Example 30); conditions: read-out: Minimum Inhibitory Concentration
# Protocol: as §1
# Enterobacter cloacae [12] = assay: MIC / synergism, microtitre method (Example 42); assay type: cell-based; conditions: agent alone, inoculum final dilution 0.5 ×10^-2, 37° C overnight, read-out: Minimum Inhibitory Concentration
# Salmonella typhimurium = assay: MIC, microtitre method (Example 30); conditions: Salmonella enterica, read-out: Minimum Inhibitory Concentration
# Protocol: as §1
# Proteus mirabilis C977 = assay: MIC, microtitre method (Example 30); conditions: C977, read-out: Minimum Inhibitory Concentration
# Protocol: as §1
# Proteus vulgaris W090 = assay: MIC, microtitre method (Example 30); conditions: W090, read-out: Minimum Inhibitory Concentration
# Protocol: as §1
# Escherichia coli B 11 = assay: MIC / synergism, microtitre method (Example 42); assay type: cell-based; conditions: B11, agent alone, inoculum final dilution 0.5 ×10^-2, 37° C overnight, read-out: Minimum Inhibitory Concentration
# Klebsiella oxytocum = assay: MIC, microtitre method (Example 30); conditions: read-out: Minimum Inhibitory Concentration
# Protocol: as §1
compound,measurement,setting,value
"O=C(O)[C@H]1/C(=C/CO)O[C@@H]2CC(=O)N21 [clavulanic acid sodium salt, 3-(β-hydroxyethylidine)-7-oxo-4-oxa-1-azabicyclo [3,2,0]heptane-2-carboxylic acid sodium salt]",MIC,Streptococcus faecalis,> 500 µg/mL
same,MIC,[1],31 µg/mL
same,MIC,[2],31 µg/mL
same,MIC,Bacillus subtilis A,62 µg/mL
same,MIC,[3],7.5 µg/mL
same,MIC,[4],15 µg/mL
same,levels of clavulanic acid after oral administration,[5]; oral administration of 100 mg/kg,useful levels of clavulanic acid can be obtained
same,blood and tissue levels of clavulanic acid,[5]; subcutaneous administration of 100 mg/kg,> 5 µg/mL
same,MIC,Pseudomonas aeruginosa A,500 µg/mL
same,MIC,Proteus mirabilis 899,> 500 µg/mL
same,MIC,Escherchia coli 10418,125 µg/mL
same,MIC,Klebsiella sp 62,31 µg/mL
same,MIC,Enterobacter cloacae [6],62 µg/mL
same,MIC,Providentia stuartii,125 µg/mL
same,MIC,Acinetobacter anitratus,125 µg/mL
same,MIC,[7],7.5 µg/mL
same,MIC,[8],31 µg/mL
same,MIC,Staphylococcus aureus,62 µg/mL
same,MIC,[9],125 µg/mL
same,MIC,Staph. aureus Oxford,15 µg/mL
same,MIC,Shigella sonnei,62 µg/mL
same,MIC,Serratia marcescens [10],125 µg/mL
same,MIC,Klebsiella aerogenes,31 to 62 µg/mL
same,MIC,Staph. aureus Russell,15 µg/mL
same,MIC,Serratia marcescens [11],125 µg/mL
same,MIC,Bacillus subtilis,62 µg/mL
same,MIC,Enterobacter cloacae [12],62 µg/mL
same,MIC,Salmonella typhimurium,31 µg/mL
same,MIC,Proteus mirabilis C977,62 µg/mL
same,MIC,Proteus vulgaris W090,31 µg/mL
same,MIC,Escherichia coli B 11,62 µg/mL
same,MIC,Klebsiella oxytocum,62 µg/mL
